Assay [1] deals with Mus musculus. In words: Antinociceptive effect in sc dosed Swiss mouse assessed as inhibition of acetic acid-induced visceral pain. The class given is functional. The note with it: read-out: ID50 (the source's name).
The subject of assay [2] is Mus musculus. In words: Antinociceptive effect in Swiss mouse assessed as inhibition of acetic acid-induced visceral pain at 0.0001 to 30 mg/kg, ip relative to morphine. The class given is functional. The note with it: dose mg/kg 0.0001-30; route intraperitoneal.

With `CN1CC[C@]23c4c5ccc(O)c4O[C@H]2[C@@H](O)C=C[C@H]3[C@H]1C5` [MORPHINE], in assay [1], the ED50 is 0.67 mg/kg.
By Inhibition is commonly meant the relative decrease from the control value, in per cent. Regarding `CC(=O)Oc1ccccc1C(=O)O` [ASPIRIN], the Inhibition in assay [2] amounted to 83%. Also, the ED50 in assay [1] stood at 24 mg/kg.

Values taken from ChEMBL document CHEMBL1143894, “Synthetic derivatives of the alpha- and beta-amyrin triterpenes and their antinociceptive properties” (2008).
